Assay results taken from ChEMBL document CHEMBL1201862, “PubChem BioAssay data set” (2004).
Calls of active or inactive are those of the source.

Assays:
[1] = biological target: T1, Small ubiquitin-related modifier 1 (Homo sapiens, UniProt P63165); test: inhibitors of SUMO1 peptide binding, dose response, biochemical, fluorescence polarization, uHTS hits (AID 624382); type: functional; details: read-out: IC50_Mean
[2] = biological target: T1, Small ubiquitin-related modifier 1; test: inhibitors of SUMO1 partner interactions, dose response, biochemical, FRET (AID 624383); type: functional; details: read-out: IC50_Mean
Caspase-6 = biological target: T2, Caspase-6 (Homo sapiens, UniProt P55212); test: human caspase-6 inhibitors, dose response, biochemical, VEID-R110 fluorescence, cherry-pick (AID 720632)
T2 sequence (P55212 whole entry): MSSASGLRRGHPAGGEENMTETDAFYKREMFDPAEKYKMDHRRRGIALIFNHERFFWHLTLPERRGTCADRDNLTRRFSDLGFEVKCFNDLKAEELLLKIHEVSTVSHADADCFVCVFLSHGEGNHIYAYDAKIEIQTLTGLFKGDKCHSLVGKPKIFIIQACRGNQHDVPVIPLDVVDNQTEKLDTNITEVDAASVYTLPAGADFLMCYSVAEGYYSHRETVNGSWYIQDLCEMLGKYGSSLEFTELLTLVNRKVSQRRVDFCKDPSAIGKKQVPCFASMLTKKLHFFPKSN

Large T antigen = Large T antigen (Simian virus 40, UniProt P03070); type: functional, Betapolyomavirus macacae;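 further: Confirmatory-stage PubChem screen for compounds that inhibit SV40 T antigen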
Chain of Large T antigen (P03070 whole entry): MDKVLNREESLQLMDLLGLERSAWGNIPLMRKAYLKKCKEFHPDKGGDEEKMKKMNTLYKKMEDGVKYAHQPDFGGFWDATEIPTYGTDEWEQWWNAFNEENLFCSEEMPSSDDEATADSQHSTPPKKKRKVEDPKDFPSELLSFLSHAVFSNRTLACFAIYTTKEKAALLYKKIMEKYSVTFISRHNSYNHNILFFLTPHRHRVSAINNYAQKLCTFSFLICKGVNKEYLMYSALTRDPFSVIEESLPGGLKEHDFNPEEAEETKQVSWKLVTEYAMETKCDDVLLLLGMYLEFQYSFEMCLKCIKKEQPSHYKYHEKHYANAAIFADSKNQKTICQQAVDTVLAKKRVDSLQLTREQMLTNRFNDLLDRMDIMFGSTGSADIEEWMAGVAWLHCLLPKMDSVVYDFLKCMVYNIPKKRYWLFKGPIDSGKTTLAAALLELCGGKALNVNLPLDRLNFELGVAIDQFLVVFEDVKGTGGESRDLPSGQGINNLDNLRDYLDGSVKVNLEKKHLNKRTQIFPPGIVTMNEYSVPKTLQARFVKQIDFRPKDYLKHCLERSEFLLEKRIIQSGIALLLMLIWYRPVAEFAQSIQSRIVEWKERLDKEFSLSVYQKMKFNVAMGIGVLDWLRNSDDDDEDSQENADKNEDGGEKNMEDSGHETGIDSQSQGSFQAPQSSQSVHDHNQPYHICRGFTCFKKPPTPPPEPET

[3] = biological target: T3, Zinc finger protein mex-5 (Caenorhabditis elegans, UniProt Q9XUB2); test: MEX-5/TCR-2 RNA interaction inhibitors, dose response, biochemical, C. elegans, fluorescence polarization (AID 1960)
T3 sequence (Q9XUB2 whole entry): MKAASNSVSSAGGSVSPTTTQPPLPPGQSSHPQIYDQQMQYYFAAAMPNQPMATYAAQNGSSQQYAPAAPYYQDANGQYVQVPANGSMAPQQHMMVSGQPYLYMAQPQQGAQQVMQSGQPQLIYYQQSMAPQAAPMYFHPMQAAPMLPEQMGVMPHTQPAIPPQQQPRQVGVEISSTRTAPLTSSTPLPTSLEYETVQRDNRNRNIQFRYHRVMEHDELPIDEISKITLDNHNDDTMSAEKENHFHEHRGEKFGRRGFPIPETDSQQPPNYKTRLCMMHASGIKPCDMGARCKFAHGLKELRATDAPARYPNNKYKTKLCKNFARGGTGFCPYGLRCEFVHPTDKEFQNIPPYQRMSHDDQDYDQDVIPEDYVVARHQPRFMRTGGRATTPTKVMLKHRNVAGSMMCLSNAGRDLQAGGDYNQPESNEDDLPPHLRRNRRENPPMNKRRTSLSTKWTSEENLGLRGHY

[4] = biological target: T4, RNA-binding protein pos-1 (Caenorhabditis elegans, UniProt G5EF15); test: inhibitors of POS-1/mex-3 RNA binding, dose response, biochemical, fluorescence polarization (AID 1964);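 further: purified POS-1 fused to maltose binding protein made in E. coli; potency of compounds blocking POS-1 binding to fluorescent RNA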
T4 sequence (G5EF15 whole entry): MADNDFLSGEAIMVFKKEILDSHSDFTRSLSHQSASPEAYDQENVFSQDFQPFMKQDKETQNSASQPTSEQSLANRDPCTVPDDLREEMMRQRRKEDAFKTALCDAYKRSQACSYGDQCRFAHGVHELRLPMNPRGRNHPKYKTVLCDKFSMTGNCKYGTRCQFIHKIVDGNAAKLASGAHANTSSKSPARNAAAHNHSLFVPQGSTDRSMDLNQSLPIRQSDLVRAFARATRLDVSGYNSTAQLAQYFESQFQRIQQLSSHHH

Beta-galactosidase = Beta-galactosidase (Escherichia coli, UniProt Q8VNN2); test: Dose response counterscreen for EBI2 assay utilizing the enzyme, b-galactosidase.; type: functional
Chain of Beta-galactosidase (Q8VNN2 whole entry): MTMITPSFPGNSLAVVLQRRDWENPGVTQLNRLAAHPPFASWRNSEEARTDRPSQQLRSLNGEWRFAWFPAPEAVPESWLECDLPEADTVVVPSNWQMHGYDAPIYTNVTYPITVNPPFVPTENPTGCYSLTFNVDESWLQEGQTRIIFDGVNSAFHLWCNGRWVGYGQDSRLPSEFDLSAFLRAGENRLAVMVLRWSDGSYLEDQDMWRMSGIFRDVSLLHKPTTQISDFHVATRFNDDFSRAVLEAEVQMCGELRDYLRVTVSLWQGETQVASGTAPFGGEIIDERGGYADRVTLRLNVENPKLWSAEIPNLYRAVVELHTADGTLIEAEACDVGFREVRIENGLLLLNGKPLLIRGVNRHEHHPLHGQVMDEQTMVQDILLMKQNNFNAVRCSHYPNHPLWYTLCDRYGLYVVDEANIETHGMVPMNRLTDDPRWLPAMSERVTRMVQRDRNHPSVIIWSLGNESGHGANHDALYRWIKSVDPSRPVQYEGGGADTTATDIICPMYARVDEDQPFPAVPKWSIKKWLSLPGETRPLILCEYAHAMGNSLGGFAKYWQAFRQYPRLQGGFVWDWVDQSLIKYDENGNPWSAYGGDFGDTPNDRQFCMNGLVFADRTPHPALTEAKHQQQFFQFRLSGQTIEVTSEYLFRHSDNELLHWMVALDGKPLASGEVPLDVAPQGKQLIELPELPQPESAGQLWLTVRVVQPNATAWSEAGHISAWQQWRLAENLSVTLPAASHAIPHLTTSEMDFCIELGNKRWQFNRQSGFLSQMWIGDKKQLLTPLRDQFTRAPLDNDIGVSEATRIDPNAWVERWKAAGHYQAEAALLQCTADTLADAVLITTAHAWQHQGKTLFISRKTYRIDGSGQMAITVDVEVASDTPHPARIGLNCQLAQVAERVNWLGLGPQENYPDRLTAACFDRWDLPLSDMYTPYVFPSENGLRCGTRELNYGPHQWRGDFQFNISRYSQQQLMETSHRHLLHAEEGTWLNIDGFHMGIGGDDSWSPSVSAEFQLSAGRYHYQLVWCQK

[5] = biological target: T5, Long-chain-fatty-acid--AMP ligase FadD28 (Mycobacterium tuberculosis, UniProt P9WQ59); test: Fluorescence polarization aasay to screen for inhibitors that compete for the binding of FadD28 to a bisubstrate Measured in Biochemical System Using Plate Reader - 2147-01_Inhibitor_Dose_CherryPick_Activity.; type: functional, Mycobacterium tuberculosis H37Rv
T5 sequence (P9WQ59 whole entry): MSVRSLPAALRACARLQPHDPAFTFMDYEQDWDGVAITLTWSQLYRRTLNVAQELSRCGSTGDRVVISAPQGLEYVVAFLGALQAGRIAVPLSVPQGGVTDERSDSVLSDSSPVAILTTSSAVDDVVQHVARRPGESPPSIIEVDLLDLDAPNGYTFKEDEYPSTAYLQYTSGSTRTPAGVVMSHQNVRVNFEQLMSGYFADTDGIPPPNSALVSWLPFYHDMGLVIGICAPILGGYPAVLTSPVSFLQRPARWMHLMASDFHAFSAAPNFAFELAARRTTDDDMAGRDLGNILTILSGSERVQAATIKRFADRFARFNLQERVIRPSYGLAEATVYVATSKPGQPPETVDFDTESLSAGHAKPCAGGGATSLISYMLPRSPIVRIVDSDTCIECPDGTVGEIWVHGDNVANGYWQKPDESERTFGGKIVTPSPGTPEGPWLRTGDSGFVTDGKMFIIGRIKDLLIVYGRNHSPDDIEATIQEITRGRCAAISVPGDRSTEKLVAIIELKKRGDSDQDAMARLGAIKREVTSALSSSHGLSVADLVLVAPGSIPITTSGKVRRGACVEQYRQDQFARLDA

Protein Tat = biological target: T6, Protein Tat (Human immunodeficiency virus type 1 group M subtype B (isolate HXB2)(HIV-1), UniProt P04608); type: functional;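 further: tat binding to TAR RNA read out by fluorescence polarization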
T6 sequence (P04608 whole entry): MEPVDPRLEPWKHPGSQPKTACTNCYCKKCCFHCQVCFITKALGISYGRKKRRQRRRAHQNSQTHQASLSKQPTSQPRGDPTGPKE

[6] = off-target signal loss in HeLa-CEM21 co-culture – HeLa F-luc CTL cells, cherry-picked, counter-screen for HIV-1 Env fusion inhibitor project, dose response (AID 652040); type: functional, cell-based;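 further: potency for signal decrease marking cytotoxic or nonspecific inhibition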
[7] = inhibitors of HIV Env-driven cell fusion, dose response, cherry-pick (AID 652057); type: functional, cell-based
[8] = CEM21 lymphoblast cell cytotoxicity, dose response, cytotoxicity control for viral fusion inhibitor project, CellTiter-Glo luminescence, cherry-picked (AID 652042); type: functional, cell-based;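 further: potency for signal decrease meaning cytotoxicity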
[9] = biological target: Arf-GAP with SH3 domain, ANK repeat and PH domain-containing protein 1 (Homo sapiens, UniProt Q9ULH1); type: functional;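 further: biochemical fluorescence polarization dose–response screen measuring inhibition of ASAP1; ASAP1 GAP domain stimulating GTP hydrolysis by truncated human ARF1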
Chain of Arf-GAP with SH3 domain, ANK repeat and PH domain-containing protein 1 (Q9ULH1 whole entry, the tested form may be a part): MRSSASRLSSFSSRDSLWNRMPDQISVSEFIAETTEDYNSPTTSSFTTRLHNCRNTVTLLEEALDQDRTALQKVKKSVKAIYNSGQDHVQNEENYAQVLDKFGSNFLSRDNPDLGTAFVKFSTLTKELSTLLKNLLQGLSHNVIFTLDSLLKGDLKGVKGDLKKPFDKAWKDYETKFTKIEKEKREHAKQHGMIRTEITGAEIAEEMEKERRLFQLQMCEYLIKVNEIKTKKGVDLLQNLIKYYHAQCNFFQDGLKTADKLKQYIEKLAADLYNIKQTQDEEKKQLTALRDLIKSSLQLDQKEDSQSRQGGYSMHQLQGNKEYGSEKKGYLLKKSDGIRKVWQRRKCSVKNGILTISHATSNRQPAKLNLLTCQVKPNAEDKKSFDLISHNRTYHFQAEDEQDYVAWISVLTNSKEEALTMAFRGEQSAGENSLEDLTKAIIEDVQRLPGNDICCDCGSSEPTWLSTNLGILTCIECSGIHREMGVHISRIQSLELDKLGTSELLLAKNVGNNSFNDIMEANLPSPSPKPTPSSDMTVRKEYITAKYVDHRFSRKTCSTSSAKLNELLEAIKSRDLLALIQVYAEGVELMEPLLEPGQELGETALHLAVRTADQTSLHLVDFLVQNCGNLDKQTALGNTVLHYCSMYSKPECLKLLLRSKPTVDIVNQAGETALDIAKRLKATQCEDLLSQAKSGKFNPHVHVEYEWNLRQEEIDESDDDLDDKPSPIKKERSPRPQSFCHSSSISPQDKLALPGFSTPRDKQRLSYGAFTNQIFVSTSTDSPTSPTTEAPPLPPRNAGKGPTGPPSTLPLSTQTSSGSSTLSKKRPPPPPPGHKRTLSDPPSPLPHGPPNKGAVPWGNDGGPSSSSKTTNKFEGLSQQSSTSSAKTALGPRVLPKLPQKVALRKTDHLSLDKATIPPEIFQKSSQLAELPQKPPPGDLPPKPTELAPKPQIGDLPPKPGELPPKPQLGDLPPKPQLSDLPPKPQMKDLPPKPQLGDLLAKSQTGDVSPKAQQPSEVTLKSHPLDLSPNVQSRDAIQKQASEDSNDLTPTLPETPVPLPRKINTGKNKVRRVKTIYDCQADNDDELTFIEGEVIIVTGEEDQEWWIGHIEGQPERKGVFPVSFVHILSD

[10] = NIH:OVCAR-3 ovarian cancer cell cytotoxicity, dose response, PAX8 inhibitor project, plate reader, dry powder samples (AID 743044); type: functional, cell-based
[11] = cytotoxicity in OVCAR8 ovarian cancer cells, dose response, PAX8 project, cell-based, plate reader, dry powder samples (AID 743197); type: functional; details: OVCAR-8
[12] = IGROV1 ovarian cancer cell cytotoxicity, dose response, PAX8 inhibitor project, plate reader, dry powder samples (AID 743043); type: functional, cell-based; details: IGROV-1
[13] = A2780 ovarian cancer cell cytotoxicity, dose response, cytotoxicity control, plate reader, dry powder samples (AID 743046); type: functional, cell-based
Paired box protein Pax-8 = Paired box protein Pax-8 (Homo sapiens, UniProt Q06710); test: inhibitors of PAX8-driven TPO luciferase reporter, dose response, RMG-I cells, cherry-pick (AID 687027); type: functional, cell-based;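 further: luciferase reporter driven by Pax8 target thyroperoxidase promoter measured by SteadyGlo luminescence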
Chain of Paired box protein Pax-8 (Q06710 whole entry): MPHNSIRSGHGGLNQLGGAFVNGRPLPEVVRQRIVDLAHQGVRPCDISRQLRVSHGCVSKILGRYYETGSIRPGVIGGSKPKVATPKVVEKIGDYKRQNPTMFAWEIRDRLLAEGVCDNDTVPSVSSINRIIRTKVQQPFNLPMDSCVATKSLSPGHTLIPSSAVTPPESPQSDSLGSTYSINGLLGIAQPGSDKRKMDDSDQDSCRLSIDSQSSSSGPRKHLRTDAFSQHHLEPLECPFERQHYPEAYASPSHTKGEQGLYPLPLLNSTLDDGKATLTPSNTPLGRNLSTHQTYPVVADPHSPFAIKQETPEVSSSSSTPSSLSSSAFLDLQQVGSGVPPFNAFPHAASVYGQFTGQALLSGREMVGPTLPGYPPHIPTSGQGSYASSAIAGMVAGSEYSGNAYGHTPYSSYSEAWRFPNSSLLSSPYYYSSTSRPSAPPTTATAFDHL

T1 sequence (P63165 whole entry): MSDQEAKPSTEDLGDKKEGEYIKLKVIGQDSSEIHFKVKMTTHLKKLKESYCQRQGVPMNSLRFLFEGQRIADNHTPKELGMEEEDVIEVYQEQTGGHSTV

COc1cc(/C=C2\CCc3c2nc2ccccc2c3C(=O)O)cc(OC)c1OC
IC50 [1]: > 66.6 µM (inactive)
IC50 [2]: 12.5 µM (active)
AC50 (Caspase-6): 6.8 µM (active)
IC50 (Large T antigen): 35 µM (active)
EC50 [3]: 34.8 µM (active)
EC50 [4]: 94 µM (active)

COc1ccc(N2CCN(C(=O)c3cc4c(s3)-c3ccccc3OC4)CC2)cc1
IC50 (Beta-galactosidase): > 80 µM (inactive)

Cc1ccc(NC(=O)CN2C(=O)S/C(=C\c3cc(C)n(-c4cccc(C(=O)O)c4)c3C)C2=O)cc1
AC50 [5]: 2.03 µM (active)
EC50 [3]: > 300 µM (not active)
EC50 [4]: > 300 µM (not active)

Cc1cc(O)cc(O)c1C(=O)Cc1cnn(-c2ccccc2)c1
IC50 (Protein Tat): > 100 µM (inconclusive)

Cc1cc(C(C)(C)C)oc1C(=O)N(CC(=O)NC1CCCC1)Cc1ccc(Cl)cc1
AC50 [6]: > 70 µM (inactive)
AC50 [7]: 6.45 µM (active)
AC50 [8]: 49.5 µM (active)

COc1ccc([N+](=O)[O-])cc1NC(=O)c1ccc(-n2nc(C)cc2C)cc1
IC50 [9]: 28 µM (inactive)

CN1CCN(C(=O)/C=C/c2ccc(Cl)cc2)CC1
IC50 (Beta-galactosidase): > 80 µM (inactive)

CCN1CCN(c2ccc(S(=O)(=O)N3CCOCC3)cc2NC(=O)/C=C/c2ccc(C)cc2)CC1
IC50 (Beta-galactosidase): > 80 µM (inactive)

COc1cccc(CNC(=O)COc2cc(O)c3c(c2)OC(C)(C)CC3=O)c1
AC50 [5]: 79.7 µM (active)

COc1ccc(C(=O)NCc2ccc(C)cc2)cc1S(=O)(=O)N1CCOCC1
AC50 [5]: 64.8 µM (active)

O=C(C[C@@H]1CC[C@@H]2[C@H](COC[C@@H](O)CN2C(=O)Nc2ccc(Cl)c(Cl)c2)O1)NCc1ccc(Cl)cc1
AC50 [10]: 33.5 µM (active)
AC50 [11]: 53.3 µM (active)
AC50 [12]: 33.9 µM (active)
AC50 [13]: 60 µM (active)
AC50 (Paired box protein Pax-8): 8.87 µM (active)
